# Starred links: 1 amine or outer side, 2 acyl side, 3 side chain; linkers in the order of their positions; H or OH if unused. Non-standard residues stand in square brackets, D forms with d. Residues, ends and D or L forms follow the SMILES beside them. X2 = O=C(c1cc(CN[*:1])cc(Cc2ccc(O)cc2)c1)[*:2]; X1 = O=C(c1cc(Cc2ccc(O)cc2)cc(N[*:1])c1)[*:2]; Phe(4-NH2) = Nc1ccc(C[C@H](N)C(=O)O)cc1
# Target: T1, Type-1 angiotensin II receptor B (Rattus norvegicus, UniProt P29089)
# T1 sequence (P29089 whole entry): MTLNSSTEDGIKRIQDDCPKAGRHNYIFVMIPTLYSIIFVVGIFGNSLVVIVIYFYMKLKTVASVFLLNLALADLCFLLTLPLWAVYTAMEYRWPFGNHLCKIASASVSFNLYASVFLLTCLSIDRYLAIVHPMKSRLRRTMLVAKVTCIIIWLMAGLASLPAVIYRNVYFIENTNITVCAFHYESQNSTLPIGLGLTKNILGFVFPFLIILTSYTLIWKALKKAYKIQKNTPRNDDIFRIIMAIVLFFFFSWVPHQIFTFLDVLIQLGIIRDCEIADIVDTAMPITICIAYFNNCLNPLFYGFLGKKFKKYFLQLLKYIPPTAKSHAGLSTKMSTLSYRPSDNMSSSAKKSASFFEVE
# Test: Binding affinity for angiotensin II receptor, type 1 in rat liver membrane using [125I]-Ang II as radioligand, in pH 7.4 Tris-HCl buffer for 2 hr at 25 degree C
# Type: cell membranes
row,SMILES,Ki [µM]
1,CC(C)[C@H](NC(=O)[C@H](CCCN=C(N)N)NC(=O)[C@@H](N)CC(=O)O)C(=O)NCc1cc(Cc2ccc(O)cc2)cc(C(=O)N[C@@H](Cc2c[nH]cn2)C(=O)N2CCC[C@H]2C(=O)N[C@@H](Cc2ccccc2)C(=O)O)c1 (H-DRV[X2]HPF-OH),> 10
2,N=C(N)NCCC[C@H](NC(=O)[C@@H](N)CC(=O)O)C(=O)Nc1cc(Cc2ccc(O)cc2)cc(C(=O)N[C@@H](Cc2cnc[nH]2)C(=O)N2CCC[C@H]2C(=O)N[C@@H](Cc2ccccc2)C(=O)O)c1 (H-DR[X1]HPF-OH),> 10
3,NC(N)=NCCC[C@H](NC(=O)[C@@H](N)CC(=O)O)C(=O)NCc1cc(Cc2ccc(O)cc2)cc(C(=O)N[C@@H](Cc2c[nH]cn2)C(=O)N2CCC[C@H]2C(=O)N[C@@H](Cc2ccccc2)C(=O)O)c1 (H-DR[X2]HPF-OH),> 10
4,CC[C@H](C)[C@H](NC(=O)c1cc(CNC(=O)[C@H](CCCN=C(N)N)NC(=O)[C@@H](N)CC(=O)O)cc(Cc2ccc(O)cc2)c1)C(=O)N[C@@H](Cc1c[nH]cn1)C(=O)N1CCC[C@H]1C(=O)N[C@@H](Cc1ccccc1)C(=O)O (H-DR[X2]IHPF-OH),> 10

# Second part, the compound after the results:
row,Ki [µM],SMILES
1,0.00016,CC[C@H](C)[C@H](NC(=O)[C@H](Cc1ccc(O)cc1)NC(=O)[C@@H](NC(=O)[C@H](CCCNC(=N)N)NC(=O)CNC)C(C)C)C(=O)N[C@@H](Cc1cnc[nH]1)C(=O)N1CCC[C@H]1C(=O)N[C@@H](Cc1ccccc1)C(=O)O
2,> 10,CC[C@H](C)[C@H](NC(=O)[C@H](Cc1ccc(O)cc1)NC(=O)[C@@H](NC(=O)[C@H](CCCN=C(N)N)NC(=O)[C@@H](N)CC(=O)O)C(C)C)C(=O)N[C@@H](Cc1ccc(N)cc1)C(=O)N1CCC[C@H]1C(=O)N[C@@H](Cc1ccccc1)C(=O)O (H-DRVYI[Phe(4-NH2)]PF-OH)
3,0.0303,CC(C)[C@H](NC(=O)[C@H](CCCN=C(N)N)NC(=O)[C@@H](N)CC(=O)O)C(=O)Nc1cc(Cc2ccc(O)cc2)cc(C(=O)N[C@@H](Cc2c[nH]cn2)C(=O)N2CCC[C@H]2C(=O)N[C@@H](Cc2ccccc2)C(=O)O)c1 (H-DRV[X1]HPF-OH)

# — ChEMBL document CHEMBL1141124 (J Med Chem, 2005)
